EC50 data for four molecules are collected here from ChEMBL document CHEMBL5729261, “AMPK activators” (2022).

For the test, the target named is AMP-activated protein kinase (AMPK) alpha-1/beta-1/gamma-1 (Homo sapiens, UniProt P54619+Q13131+Q9Y478). Description: In Vitro pAMPK1 Kinase Activation Assay: Compound effect on AMPK enzyme activation was determined in a cell-free format with a 12-point concentration curve. The ADP-Glo detection system was used to determine phosphorylation of a SAMS peptide substrate. Recombinant AMPK α1/β1/γ1 complex was pre-activated by phosphorylation with CAMKK2 followed by incubated with compound for 15 minutes prior to the SAMS phosphorylation reaction. Activity curves and EC50 values were fitted by interpolation to an ATP:ADP standard curve as indicated by the ADP-Glo manufacturer using Prism software. The test is classed as protein-complex assay.
AMP-activated protein kinase (AMPK) alpha-1/beta-1/gamma-1, sequence (P54619 whole entry): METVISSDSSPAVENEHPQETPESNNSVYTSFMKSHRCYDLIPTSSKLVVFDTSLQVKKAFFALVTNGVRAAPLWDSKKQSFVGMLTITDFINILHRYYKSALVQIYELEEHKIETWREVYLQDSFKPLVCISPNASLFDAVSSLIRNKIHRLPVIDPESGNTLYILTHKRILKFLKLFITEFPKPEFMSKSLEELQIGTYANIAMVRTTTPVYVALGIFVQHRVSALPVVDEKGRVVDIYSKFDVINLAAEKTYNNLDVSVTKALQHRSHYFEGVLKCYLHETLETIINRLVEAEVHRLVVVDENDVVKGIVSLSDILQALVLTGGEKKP
AMP-activated protein kinase (AMPK) alpha-1/beta-1/gamma-1, sequence (Q9Y478 whole entry): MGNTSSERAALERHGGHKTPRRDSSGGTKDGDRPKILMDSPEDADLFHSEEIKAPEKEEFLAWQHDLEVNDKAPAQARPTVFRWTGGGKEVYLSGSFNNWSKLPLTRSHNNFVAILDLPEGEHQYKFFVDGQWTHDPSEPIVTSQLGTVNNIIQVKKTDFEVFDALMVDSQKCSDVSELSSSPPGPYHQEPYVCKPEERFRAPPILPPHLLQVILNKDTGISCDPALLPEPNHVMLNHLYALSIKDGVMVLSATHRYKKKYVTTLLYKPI
AMP-activated protein kinase (AMPK) alpha-1/beta-1/gamma-1, sequence (Q13131 whole entry): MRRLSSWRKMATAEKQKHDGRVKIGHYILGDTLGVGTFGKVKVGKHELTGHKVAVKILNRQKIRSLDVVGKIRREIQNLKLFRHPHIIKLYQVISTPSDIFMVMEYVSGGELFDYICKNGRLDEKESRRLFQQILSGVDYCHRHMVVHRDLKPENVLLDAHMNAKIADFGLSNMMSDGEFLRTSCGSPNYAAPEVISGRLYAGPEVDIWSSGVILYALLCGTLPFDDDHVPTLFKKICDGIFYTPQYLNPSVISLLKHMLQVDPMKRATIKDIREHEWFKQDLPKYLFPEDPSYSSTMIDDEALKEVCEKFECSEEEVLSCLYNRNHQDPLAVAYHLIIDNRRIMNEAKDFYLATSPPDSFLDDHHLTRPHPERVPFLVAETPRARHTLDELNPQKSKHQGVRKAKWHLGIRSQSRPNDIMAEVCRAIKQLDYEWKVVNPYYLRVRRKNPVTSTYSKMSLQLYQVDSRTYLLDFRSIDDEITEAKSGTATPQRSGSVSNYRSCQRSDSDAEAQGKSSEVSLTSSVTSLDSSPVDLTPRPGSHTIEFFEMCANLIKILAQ
In the case of `O=C(NCC[N+]12CCN(CC1)CC2)c1ccc(-c2ccc(-c3cc4nc(O[C@@H]5CO[C@H]6[C@@H]5OC[C@H]6O)[nH]c4cc3Cl)cc2)cc1`, the half-maximal effective concentration (EC50) (usually the midpoint of the concentration-response curve) turned out to be 0.76 nM. On to `OCC(CO)NCc1ccc(-c2ccc(-c3cc4nc(O[C@@H]5CO[C@H]6[C@@H]5OC[C@H]6O)[nH]c4cc3Cl)cc2)cc1`, for which the 50% effective concentration (EC50) came out at 1.08 nM. Next, `O=C(NCCC[N+]12CCN(CC1)CC2)c1ccc(-c2ccc(-c3cc4nc(O[C@@H]5CO[C@H]6[C@@H]5OC[C@H]6O)[nH]c4cc3Cl)cc2)cc1`: 0.96 nM; `O=S(=O)(NCCOCCO)c1ccc(-c2ccc(-c3cc4nc(O[C@@H]5CO[C@H]6[C@@H]5OC[C@H]6O)[nH]c4cc3Cl)cc2)cc1`: 1.51 nM.
